Biological target: hCRTH2 (Homo sapiens (Human), UniProt Q9Y5Y4)
Assay: Radioligand binding assay ([3H]-PGD2, SPA or filtration)
Details: [3H]-PGD2 competition, membrane protein from HEK-hCRTH2 cell line, room temperature, SPA or filtration format
Method: Radioligand binding was performed using filtration or scintillation proximity assay (SPA) technology. SPA assays were done at room temperature in 10 mM HEPES pH 7.4, 1 mM EDTA containing 2 mM MnCl2 and 16 nM [^3H]-PGD2 (PerkinElmer, Waltham, Mass.) (164 Ci mmol-1), in a final volume of 0.05 mL. Competing ligands were diluted in dimethylsulfoxide and added using very low volumes (500 nL). The reaction was initiated by the addition of a mixture of 3.52 ug of membrane protein prepared from a human embryonic kidney (HEK)-hCRTH2 cell line adhered to 140 ug of wheatgerm agglutinin SPA beads (PerkinElmer). Total and non-specific binding were determined in the absence and the presence of a CRTH2 antagonist, respectively. The reaction was routinely conducted for 60 minutes at room temperature followed by centrifugation for 5 minutes at 1000 RPM. The radioactivity was measured with a TopCountNXT (PerkinElmer). Filtration binding assays were done in a similar way with minor differences. The assay volume was 0.20 mL and competing ligands in dimethylsulfoxide were added in 2 uL. [^3H]-PGD2 was used at 0.6 nM, and reactions were initiated by the addition of 10 ug of membrane protein. Reactions were terminated by filtration through GF/C filter plates (PerkinElmer) presoaked in 10 mM HEPES. After washing with buffer, plates were dried in a 50° C. oven for 1 h, scintillation cocktail was added and radioactivity was measured. Results determined using the SPA-based assay were similar to those from the filtration binding assay. Table A (below) sets forth the results of the binding assay for representative compounds of the invention.

Chain of hCRTH2 (Q9Y5Y4 whole entry): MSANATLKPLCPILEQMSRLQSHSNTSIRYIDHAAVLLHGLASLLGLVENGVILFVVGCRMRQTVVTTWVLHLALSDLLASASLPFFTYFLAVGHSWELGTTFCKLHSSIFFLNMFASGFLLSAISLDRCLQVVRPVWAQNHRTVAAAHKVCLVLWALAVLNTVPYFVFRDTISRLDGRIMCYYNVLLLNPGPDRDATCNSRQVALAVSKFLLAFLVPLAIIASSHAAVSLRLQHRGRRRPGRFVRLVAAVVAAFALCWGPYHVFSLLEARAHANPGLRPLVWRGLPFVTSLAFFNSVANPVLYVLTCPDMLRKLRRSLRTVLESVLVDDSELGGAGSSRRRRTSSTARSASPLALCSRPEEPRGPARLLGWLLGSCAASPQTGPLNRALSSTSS

Row | SMILES | Ki
1 | COc1ccccc1-n1c(CCCCC(=O)O)cc2cc(C(=O)N[C@H](C)c3ccc(F)cc3)ccc2c1=O (single isomer, unassigned) [Example 3.6] | 363 nM
2 | COc1ccccc1-n1c(CCCCC(=O)O)cc2cc(C(=O)N[C@H](C)c3ccc(F)cc3)ccc2c1=O (single isomer, unassigned) [Example 3.7] | 18.7 nM
3 | C[C@@H](NC(=O)c1ccc2c(=O)n(Cc3ccccc3)c(CCCCC(=O)O)cc2c1)c1ccc(F)cc1 [Example 1.1, (R)-5-(2-benzyl-6-((1-(4-fluorophenyl)ethyl)carbamoyl)-1-oxo-1,2-dihydroisoquinolin-3-yl)pentanoic acid] | 37.7 nM
4 | C[C@@H](NC(=O)c1ccc2c(=O)n(Cc3ccc(F)cc3)c(CCCCC(=O)O)cc2c1)c1ccc(F)cc1 [Example 1.2, (R)-5-(2-(4-fluorobenzyl)-6-((1-(4-fluorophenyl)ethyl)carbamoyl)-1-oxo-1,2-dihydroisoquinolin-3-yl)pentanoic acid] | 49 nM
5 | C[C@@H](NC(=O)c1ccc2c(=O)n(-c3ccc(F)cc3)c(CC(=O)O)cc2c1)c1ccc(F)cc1 [Example 2.1, (R)-2-(2-(4-fluorophenyl)-6-((1-(4-fluorophenyl)ethyl)carbamoyl)-1-oxo-1,2-dihydroisoquinolin-3-yl)acetic acid] | 4920 nM
6 | O=C(O)CCCCc1cc2cc(C(=O)N[C@@H]3CCCc4ccccc43)ccc2c(=O)n1-c1ccc(F)cc1 [Example 3.1, (R)-5-(2-(4-fluorophenyl)-1-oxo-6-((1,2,3,4-tetrahydronaphthalen-1-yl)carbamoyl)-1,2-dihydroisoquinolin-3-yl)pentanoic acid] | 5.79 nM
7 | O=C(O)CCCCc1cc2cc(C(=O)N[C@@H]3CCCc4cc(F)ccc43)ccc2c(=O)n1-c1ccc(F)cc1 [Example 3.2, (R)-5-(6-((6-fluoro-1,2,3,4-tetrahydronaphthalen-1-yl)carbamoyl)-2-(4-fluorophenyl)-1-oxo-1,2-dihydroisoquinolin-3-yl) pentanoic acid] | 6.5 nM
8 | COc1ccc(-n2c(CCCCC(=O)O)cc3cc(C(=O)N[C@H](C)c4ccc(F)cc4)ccc3c2=O)cc1 [Example 3.3, (R)-5-(6-((1-(4-fluorophenyl)ethyl)carbamoyl)-2-(4-methoxyphenyl)-1-oxo-1,2-dihydroisoquinolin-3-yl)pentanoic acid] | 8.2 nM
9 | C[C@@H](NC(=O)c1ccc2c(=O)n(-c3ccc(C#N)cc3)c(CCCCC(=O)O)cc2c1)c1ccc(F)cc1 [Example 3.4, (R)-5-(2-(4-cyanophenyl)-6-((1-(4-fluorophenyl)ethyl)carbamoyl)-1-oxo-1,2-dihydroisoquinolin-3-yl)pentanoic acid] | 8.84 nM
10 | COc1cccc(-n2c(CCCCC(=O)O)cc3cc(C(=O)N[C@H](C)c4ccc(F)cc4)ccc3c2=O)c1 [Example 3.5, (R)-5-(6-((1-(4-fluorophenyl)ethyl)carbamoyl)-2-(3-methoxyphenyl)-1-oxo-1,2-dihydroisoquinolin-3-yl)pentanoic acid] | 13.1 nM
11 | C[C@@H]1CN(c2ccc(F)cc2)CCN1C(=O)c1ccc2c(=O)n(-c3ccc(F)cc3)c(CCCCC(=O)O)cc2c1 [Example 4.1, (R)-5-(2-(4-fluorophenyl)-6-(4-(4-fluorophenyl)-2-methylpiperazine-1-carbonyl)-1-oxo-1,2-dihydroisoquinolin-3-yl)pentanoic acid] | 22.5 nM
12 | C[C@@H]1CN(c2ccccc2)CCN1C(=O)c1ccc2c(=O)n(-c3ccc(F)cc3)c(CCCCC(=O)O)cc2c1 [Example 4.2, (R)-5-(2-(4-fluorophenyl)-6-(2-methyl-4-phenylpiperazine-1-carbonyl)-1-oxo-1,2-dihydro-isoquinolin-3-yl)pentanoic acid] | 13.6 nM
13 | O=C(O)CCCCc1cc2cc(C(=O)NC3CC(=O)Nc4ccccc43)ccc2c(=O)n1-c1ccc(F)cc1 (stereo not shown) [Example 4.3, 5-(2-(4-fluorophenyl)-1-oxo-6-((2-oxo-1,2,3,4-tetrahydroquinolin-4-yl)carbamoyl)-1,2-dihydroisoquinolin-3-yl)pentanoic acid] | 20.7 nM
14 | C[C@@H](NC(=O)c1ccc2c(=O)n(-c3ccc(F)cc3)c(CCCCC(=O)O)cc2c1)c1ccc(F)cc1 [Example 4.4, (R)-5-(2-(4-fluorophenyl)-6-((1-(4-fluorophenyl)ethyl)carbamoyl)-1-oxo-1,2-dihydroisoquinolin-3-yl)pentanoic acid] | 5.16 nM
15 | O=C(O)CCCCc1cc2cc(-c3cc(Cc4ccc(F)cc4)on3)ccc2c(=O)n1-c1ccc(F)cc1 [Example 5.1, 5-(6-(5-(4-fluorobenzyl)isoxazol-3-yl)-2-(4-fluorophenyl)-1-oxo-1,2-dihydroisoquinolin-3-yl)pentanoic acid] | 10.2 nM
16 | CC(c1ccc(F)cc1)c1nc(-c2ccc3c(=O)n(-c4ccc(F)cc4)c(CCCCC(=O)O)cc3c2)no1 (stereo not shown) [Example 7.3, 5-(2-(4-fluorophenyl)-6-(5-(1-(4-fluorophenyl)ethyl)-1,2,4-oxadiazol-3-yl)-1-oxo-1,2-dihydroisoquinolin-3-yl)pentanoic acid] | 12.7 nM
17 | O=C(O)CCCCc1cc2cc(-c3noc(-c4ccc(C(F)(F)F)cc4)n3)ccc2c(=O)n1-c1ccc(F)cc1 [Example 7.4, 5-(2-(4-fluorophenyl)-1-oxo-6-(5-(4-(trifluoromethyl)phenyl)-1,2,4-oxadiazol-3-yl)-1,2-dihydroisoquinolin-3-yl)pentanoic acid] | 14.8 nM
18 | C[C@@H](NC(=O)c1ccc2c(=O)n(-c3ccc(F)cc3)c(CCCCC(=O)NS(=O)(=O)C3CC3)cc2c1)c1ccc(F)cc1 [Example 8.2, (R)-3-(5-(cyclopropanesulfonamido)-5-oxopentyl)-2-(4-fluorophenyl)-N-(1-(4-fluorophenyl)ethyl)-1-oxo-1,2-dihydroisoquinoline-6-carboxamide] | 14.8 nM
19 | C[C@@H]1CN(c2ccc(F)cc2)CCN1C(=O)c1ccc2c(=O)n(-c3ccc(F)cc3)c(CCCCC(=O)NS(=O)(=O)C3CC3)cc2c1 [Example 8.3, (R)-N-(cyclopropylsulfonyl)-5-(2-(4-fluorophenyl)-6-(4-(4-fluorophenyl)-2-methylpiperazine-1-carbonyl)-1-oxo-1,2-dihydroisoquinolin-3-yl)pentanamide] | 17 nM
20 | C[C@@H]1CN(c2ccccc2)CCN1C(=O)c1ccc2c(=O)n(-c3ccc(F)cc3)c(CCCCC(=O)NS(=O)(=O)C3CC3)cc2c1 [Example 8.4, (R)-N-(cyclopropylsulfonyl)-5-(2-(4-fluorophenyl)-6-(2-methyl-4-phenylpiperazine-1-carbonyl)-1-oxo-1,2-dihydroisoquinolin-3-yl)pentanamide] | 37.2 nM
21 | O=C(CCCCc1cc2cc(-c3cc(Cc4ccc(F)cc4)on3)ccc2c(=O)n1-c1ccc(F)cc1)NS(=O)(=O)C1CC1 [Example 8.5, N-(cyclopropylsulfonyl)-5-(6-(5-(4-fluorobenzyl)isoxazol-3-yl)-2-(4-fluorophenyl)-1-oxo-1,2-dihydroisoquinolin-3-yl)pentanamide] | 17.2 nM
22 | O=C(CCCCc1cc2cc(-c3noc(Cc4ccc(F)cc4)n3)ccc2c(=O)n1-c1ccc(F)cc1)NS(=O)(=O)C1CC1 [Example 8.6, N-(cyclopropylsulfonyl)-5-(6-(5-(4-fluorobenzyl)-1,2,4-oxadiazol-3-yl)-2-(4-fluorophenyl)-1-oxo-1,2-dihydroisoquinolin-3-yl)pentanamide] | 17.3 nM

— patent US9290454B2, “Substituted isoquinolines as CRTH2 receptor modulators” (Merck Sharp & Dohme Corp., priority 2012, dated 2016)
